{"source": "patent US9956199B2", "about": "“Chromane-like cyclic prenylflavonoids for the medical intervention in neurological disorders” (priority 2011, dated 2018)", "key": {"MEF E16 cells": {"test_system": "MEF E16 cells", "experiment": "immunocytochemical staining for DCX and Map2ab in MEF cultures (neuronal differentiation)", "type": "cell-based, mouse", "conditions": "Neurobasal plus 1% FCS, 10 μM, 7 days; for number of DCX/Map2ab double positive cells: FIG. 3B", "experimental": "Following the results from the Luciferase assay described in Example 17, the inventors examined the ability of compounds according to the invention and reference compounds to promote differentiation of MEF E16 cells, using immunocytochemical staining with DCX and Map2ab antibodies.\nCompound 1a at 10 and 100 μM was analyzed for its effect on the expression of the neuronal specific markers DCX and Map2ab using primary fetal mouse brain derived cells stimulated in DMEM-KO media.\nMouse embryonic day 16 forebrain cells were prepared as described in Example 17. Before seeding the cells, glass-coverslips were coated and prepared. Glass-coverslips (13 mm) (Menzel GmbH, Braunschweig, Germany) were incubated in 1 M HCl at 65° C. overnight and stored in isopropanol until further use. Coverslips were put into 24-well test plates and air-dried. Subsequently coverslips were incubated for 1 h with 100 μg/ml Poly-L-ornithin solution at 37° C. After washing three times with sterile water coverslips were incubated with 5 μg/ml Laminin solution for 2 h. Immediately after removal of the Laminin solution cells were seeded (40.000 cells/well) in DMEM-KO plus supplement or in NB-B27 plus 1% FCS medium. One day later, cells had attached to the substrate. Cells were stimulated with the above-mentioned substances (in DMEM-KO plus supplement medium: 10 μM and 100 μM; in NB-B27 plus 1% FCS medium: 10 μM) for 3 or 7 days. In the 7 day group, medium including the substances was replaced after three days. Cultures were maintained at 37° C. in a humidified incubator with 5% CO2.\nCells were fixed with phosphate-buffered 4% paraformaldehyde (Sigma-Aldrich, Taufkirchen, Germany). […] The specimens were incubated overnight at 4° C. with the primary antibodies at the following dilutions in FSGB: rabbit anti Doublecortin (DCX) 1:500 (NEB, Frankfurt, Germany) and mouse anti-Map 2a+2b 1:400 (Sigma-Aldrich, Taufkirchen, Germany). After washing three times with FSGB, cells were incubated with the species-specific secondary antibodies, which were conjugated to fluorochromes, for 2 hours in the dark at room temperature. To remove unbound secondary antibodies, cells were washed again with PBS. Nuclear counterstaining was performed with 4′,6′-diamidino-2-phenylindole dihydrochloride hydrate (DAPI) at […] (Sigma Aldrich, Taufkirchen, Germany). Finally, cells were washed again three times with PBS and mounted on microscope slides using Prolong Antifade reagent (Invitrogen, Oreg., USA).\nThe immunostainings were examined using Olympus IX81 inverted research microscope and the software Volocity 5.3.1. To quantify the number of cells, five indiscriminately chosen visual fields per coverslip were selected under a focus of 40 times. The total number of cells (DAPI positive cells), the number of DCX positive, Map2ab positive, and DCX/Map2ab double positive cells was determined."}, "[1]": {"test_system": "promoter of the neuronal precursor specific gene doublecortin (DCX)", "experiment": "DCX promoter firefly-luciferase assay in primary fetal mouse brain derived (MEF) cells", "type": "cell-based", "conditions": "for stimulatory effect on the DCX promoter activity (FF/R relative to control): DCX promoter-luciferase transfected MEF cells, stimulated three days; for effect on DCX promoter induction: 10 μM, MEF cells, three days", "experimental": "Primary mouse embryonic day 16 forebrain (MEF) cultures were prepared as follows. Pregnant NMRI mice (Charles River Laboratories, Sulzfeld, Germany) were sacrificed and the uteri promptly removed and immersed in ice-cold Dulbecco's phosphate buffered saline solution—DPBS (PAA, Pasching, Austria). Eight embryonic day (E) 16 embryos were released from the uteri; forebrains were taken out, separated from surrounding tissues and mechanically dissociated using a razor blade. Subsequently the dissociated cells were collected by 5 min centrifugation at 120×g. The pellet was resuspended in 10 ml PPD-solution containing 0.01% papain (Worthington, England), 0.1% Dispasell (Roche, Basel, Switzerland), 0.01% DNasel (Worthington, England), 12.4 mM MgSO4 dissolved in HBSS w/o Ca/Mg (PAA, Pasching, Austria). The cell suspension was incubated at 37° C. and triturated every ten minutes for three times. The cell suspension was then centrifuged at 120×g for 5 minutes and washed three times in Neurobasal medium (Gibco BRL, Germany) supplemented with 2% (v/v) B27 (Gibco BRL, Karlsruhe), 2 mM L-glutamine, 100 μg/ml Penicillin/Streptomycin (PAN Biotech GmbH, Aidenbach, Germany). Finally, the cell preparation was resuspended in 12 ml Neurobasal medium supplemented with B27 (Gibco BRL, Karlsruhe), 2 mM L-glutamine, 100 μg/ml Penicillin/Streptomycin (PAN Biotech GmbH, Aidenbach, Germany), 20 ng/ml Epidermal Growth Factor—rhEGF, 20 ng/ml Fibroblast Growth Factor—rhFGF (R&D Systems, Wiesbaden-Nordenstadt, Germany) and 2 μg/ml Heparin (Sigma-Aldrich, Taufkirchen, Germany) (NB plus all), seeded in one T75 flask (TPP, Switzerland) and maintained in a humidified atmosphere at 37° C. and 5% CO2. […] On this day (day 2), half of the medium was refreshed and on day 4 cells were passaged. To passage the cells, the culture medium containing the floating neurospheres was collected in a 15 ml tube (Corning, Lowell, USA) and centrifuged at 120×g for 5 min. For dissociation, the pellet was resuspended in 500 μl Accutase (PAA, Pasching, Austria) and triturated using a 1 ml pipette. The cell suspension was incubated at 37° C. for 10 min, and then, 10 ml media were added. Cell number was determined by Trypan blue exclusion.\nLuciferase assays were performed using a noncommercial dual luciferase enzyme assay system (Dyer et al., 2000, Anal Biochem). In this system, a co-transfection with pDCX-Luci and a control vector driving Renilla-luciferase under the CMV promoter was performed. The two different luciferases have different specific substrates and, therefore, the DCX regulatory region driven firefly luciferase activity can be distinguished from CMV driven Renilla-luciferase. For analysis, the firefly luciferase activity was normalized against the CMV driven Renilla-luciferase. For each transfection reaction, a volume containing two million cells was transferred into a 15 ml tube (Corning, Lowell, USA), centrifuged at 120×g for 5 min to pellet the cells and resuspended in 100 μl Amaxa Mouse Neural Stem Cell Nucleofector Kit (Lonza, Kln, Germany). Then, pDCX-Luci (Karl, 2005) and pRL3 (Promega, Mannheim, Germany) (5 μg each) were added and the entire reaction mix was transferred into an Amaxa transfection cuvette. Transfection was done using the A-033 program in the Amaxa Nucleofector II (Lonza, Kln, Germany). Transfected cells were then pipetted into 20 ml of DMEM knockout medium (Gibco BRL, Germany) containing 20% serum replacement supplement (PAN Biotech GmbH, Aidenbach, Germany), 2 mM L-glutamine (PAN Biotech GmbH, Aidenbach, Germany) and 100 μg/ml Penicillin/Streptomycin (PAN Biotech GmbH, Aidenbach, Germany) (DMEM-KO plus supplements) in a 50 ml tube (Corning, Lowell, USA). From this resulting cell suspension, 200 μl per well were plated in Poly-Ornithine/Laminin coated 96-well-luciferase plates (Wimmer & Macho, Wels, Austria) in a cell density of 20.000 cells per well, as described herein below."}}, "note": "“Also recorded” adds a separate entry of the source.", "data": [{"molecule": "Cc1c(C)c2c(c(C)c1O)CCC(C)(CCCC(C)CCCC(C)CCCC(C)C)O2", "note": "(racemic) [tocopherol, 2,5,7,8-tetramethyl-2-(4,8,12 trimethyltridecyl)chroman-6-ol]", "values": [{"measurement": "number of DCX/Map2ab double positive cells", "setting": "MEF E16 cells", "result": "marginally increase"}]}, {"molecule": "CC(C)=CCc1c(O)cc2c(c1O)C(=O)CC(c1ccc(O)cc1)O2", "note": "(centres unmarked) [6-prenylnaringenin, 5,7-dihydroxy-2-(4-hydroxyphenyl)-6-(3-methylbut2-en-1yl)chroman-4-one]", "values": [{"measurement": "number of DCX/Map2ab double positive cells", "setting": "MEF E16 cells", "result": "Good results"}]}, {"molecule": "CC(C)=CCc1c(O)cc(O)c2c1OC(c1ccc(O)cc1)CC2=O", "note": "(centres unmarked) [8-prenylnaringenin, 5,7-dihydroxy-2-(4-hydroxyphenyl)-8-(3-methylbut2-en-1yl)chroman-4-one]", "values": [{"measurement": "number of DCX/Map2ab double positive cells", "setting": "MEF E16 cells", "result": "Good results"}]}, {"molecule": "COc1cc2c(c(O)c1C(=O)CCc1ccc(O)cc1)CCC(C)(C)O2", "note": "[Compound 1c, 1-(5-hydroxy-7-methoxy-2,2-dimethylchroman-6-yl)-3-(4-hydroxyphenyl)propan-1-one]", "values": [{"measurement": "stimulatory effect on the DCX promoter activity (FF/R relative to control)", "setting": "[1]", "result": "significantly and strongly induce; also recorded: very strong and significant stimulatory effect"}]}, {"molecule": "COc1cc2c(c(O)c1C(=O)/C=C/c1ccc(O)c(O)c1)C=CC(C)(C)O2", "note": "[Compound 1e, (2E)-1-(5-Hydroxy-7-methoxy-2,2-dimethyl-2H-chromen-6-yl)-3-(3,4-dihydroxyphenyl)prop-2-en-1-one]", "values": [{"measurement": "stimulatory effect on the DCX promoter activity (FF/R relative to control)", "setting": "[1]", "result": "significantly and strongly induce; also recorded: very strong and significant stimulatory effect"}]}, {"molecule": "COc1cc2c(c(O)c1C(=O)/C=C/c1ccc3c(c1)OCO3)C=CC(C)(C)O2", "note": "[Compound 1f, (2E)-3-(benzo[d][1,3]dioxol-6-yl)-1-(5-hydroxy-7-methoxy-2,2-dimethyl-2H-chromen-6-yl)prop-2-en-1-one]", "values": [{"measurement": "stimulatory effect on the DCX promoter activity (FF/R relative to control)", "setting": "[1]", "result": "significantly and strongly induce; also recorded: very strong and significant stimulatory effect"}]}, {"molecule": "COc1cc2c(c(O)c1C(=O)/C=C/c1ccc(O)cc1)C=CC(C)(CCC=C(C)C)O2", "note": "(centres unmarked) [Compound 1g, (2E)-1-(5-hydroxy-7-methoxy-2-methyl-2-(4-methylpent-3-enyl)-2H-chromen-6-yl)-3-(4-hydroxyphenyl)prop-2-en-1-one]", "values": [{"measurement": "effect on DCX promoter induction", "setting": "[1]", "result": "good results"}]}, {"molecule": "CC1(C)C=Cc2c(cc3c(c2O)C(=O)CC(c2ccc(O)cc2)O3)O1", "note": "(centres unmarked) [Compound 2a, 5-Hydroxy-2-(4-hydroxy-phenyl)-8,8-dimethyl-2,3-dihydro-8H-pyrano[3,2-g]chromen-4-one]", "values": [{"measurement": "effect on DCX promoter induction", "setting": "[1]", "result": "good results"}, {"measurement": "stimulatory effect on the DCX promoter activity (FF/R relative to control)", "setting": "[1]", "result": "stimulatory effect on the DCX promoter activity was also observed"}]}, {"molecule": "CC1(C)C=Cc2c(cc(O)c3c2OC(c2ccc(O)cc2)CC3=O)O1", "note": "(centres unmarked) [Compound 3b, 5-Hydroxy-2-(4-hydroxy-phenyl)-8,8-dimethyl-2,3-dihydro-8H-pyrano[2,3-f]chromen-4-one]", "values": [{"measurement": "effect on DCX promoter induction", "setting": "[1]", "result": "good results"}]}, {"molecule": "COc1cc2c(c(O)c1C(C)=O)C=CC(C)(C)O2", "note": "[ENDF4, 1-(5-hydroxy-7-methoxy-2,2-dimethyl-2H-chromen-6-yl)-ethanone]", "values": [{"measurement": "number of DCX positive cells", "setting": "MEF E16 cells; FIG. 3A", "result": "strongly enhanced the number of DCX positive cells"}, {"measurement": "number of DCX/Map2ab double positive cells", "setting": "MEF E16 cells", "result": "Good results; also recorded: increased slightly more"}, {"measurement": "stimulatory effect on the DCX promoter activity (FF/R relative to control)", "setting": "[1]", "result": "did not have any significant stimulatory effect"}]}, {"molecule": "Cc1c(C)c2c(c(C)c1O)CCC(C)(C)O2", "note": "[chromanol, 2,2,5,7,8-Pentamethyl-6-chromanol, reference compound]", "values": [{"measurement": "number of DCX/Map2ab double positive cells", "setting": "MEF E16 cells", "result": "marginally increase"}, {"measurement": "stimulatory effect on the DCX promoter activity (FF/R relative to control)", "setting": "[1]", "result": "did not have any significant stimulatory effect"}]}, {"molecule": "COc1cc(O)c(CC=C(C)C)c2c1C(=O)CC(c1ccc(O)cc1)O2", "note": "(centres unmarked) [isoxanthohumol, 7-hydroxy-2-(4-hydroxyphenyl)-5-methoxy-8-(3-methylbut-2-en-1-yl)chroman-4-one, reference compound]", "values": [{"measurement": "number of DCX/Map2ab double positive cells", "setting": "MEF E16 cells", "result": "Good results"}, {"measurement": "stimulatory effect on the DCX promoter activity (FF/R relative to control)", "setting": "[1]", "result": "did not have any significant stimulatory effect"}]}]}
